From PubChem BioAssay (NCI)
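Dose response: 5 concentrations. Exposure: 48 h. Format: 96-well plates. Endpoint: linear interpolation; highest concentration if not reached. GI50 = concentration required for 50% inhibition of growth. TGI: concentration producing complete growth inhibition.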

Tests used:
Assay in all cases: inhibition of tumour cell growth, NCI panel, 48 h
[1] = test system: OVCAR-5 ovarian
[2] = test system: OVCAR-4 ovarian
[3] = test system: EKVX NSCLC
[4] = test system: SNB-19 CNS
[5] = test system: HCT-15 colon
[6] = test system: SF-268 CNS
[7] = test system: MOLT-4 leukemia
[8] = test system: RPMI-8226 leukemia
[9] = test system: SK-MEL-28 melanoma
[10] = test system: IGROV1 ovarian
[11] = test system: M14 melanoma
[12] = test system: MCF7 breast
[13] = test system: MDA-MB-435
[14] = test system: SF-295 CNS
[15] = test system: SW-620 colon
[16] = test system: OVCAR-8 ovarian
[17] = test system: HCC-2998 colon
[18] = test system: A498 renal
[19] = test system: NCI/ADR-RES ovarian
[20] = test system: HL-60(TB) leukemia
[21] = test system: SNB-75 CNS
[22] = test system: SF-539 CNS
[23] = test system: HS 578T breast
[24] = test system: SK-OV-3 ovarian
[25] = test system: U251 CNS
[26] = test system: 786-0 renal
[27] = test system: SK-MEL-5 melanoma
[28] = test system: NCI-H522 lung
[29] = test system: SN12C renal
[30] = test system: NCI-H23 lung
[31] = test system: T-47D breast
[32] = test system: HT29 colon
[33] = test system: A549 NSCLC
[34] = test system: KM12 colon
[35] = test system: SR leukemia
[36] = test system: TK-10 renal
[37] = test system: LOX IMVI melanoma
[38] = test system: HOP-62 NSCLC
[39] = test system: UO-31 renal
[40] = test system: NCI-H460 lung
[41] = test system: CAKI-1 renal
[42] = test system: UACC-62 melanoma
[43] = test system: COLO 205 colon
[44] = test system: PC-3 prostate
[45] = test system: RXF 393 renal
[46] = test system: HOP-92 NSCLC
[47] = test system: NCI-H226 lung
[48] = test system: BT-549 breast
[49] = test system: MDA-MB-231 breast
[50] = test system: SK-MEL-2 melanoma
[51] = test system: K-562 leukemia
[52] = test system: DU-145 prostate
[53] = test system: ACHN renal
[54] = test system: UACC-257 melanoma
[55] = test system: HCT-116 colon
[56] = test system: OVCAR-3 ovarian

COC(=O)[C@]1(C)CCC[C@@]2(C)C3=C(CC[C@H]12)C[C@@H](CC(OC(C)=O)OC(C)=O)[C@@H](C)C3
GI50 [1]: 9.89 µM | TGI [1]: 18.4 µM | GI50 [2]: 14.4 µM | TGI [2]: 47.4 µM | GI50 [3]: 11.7 µM | TGI [3]: 23.9 µM | GI50 [4]: 13.5 µM | TGI [4]: 32.1 µM | GI50 [5]: 15.4 µM | TGI [5]: > 40.7 µM | GI50 [6]: 7.85 µM | TGI [6]: 16.9 µM | GI50 [7]: 18.5 µM | TGI [7]: > 50 µM | GI50 [8]: 5.23 µM | TGI [8]: 27.7 µM | GI50 [9]: 11.5 µM | TGI [9]: 24.5 µM | GI50 [10]: 14.5 µM | TGI [10]: > 37.1 µM | GI50 [11]: 11.1 µM | TGI [11]: 20 µM | GI50 [12]: 7.99 µM | TGI [12]: 18.5 µM | GI50 [13]: 9.96 µM | TGI [13]: 20.5 µM | GI50 [14]: 11 µM | TGI [14]: 26.7 µM | GI50 [15]: 11 µM | TGI [15]: 22.7 µM | GI50 [16]: 10.2 µM | TGI [16]: 20.5 µM | GI50 [17]: 9.32 µM | TGI [17]: 16.3 µM | GI50 [18]: 11.5 µM | TGI [18]: 19.9 µM | GI50 [19]: 8.95 µM | TGI [19]: 16.3 µM | GI50 [20]: 14.4 µM | TGI [20]: > 50 µM | GI50 [21]: 14.1 µM | TGI [21]: 30.5 µM | GI50 [22]: 10.7 µM | TGI [22]: 20.3 µM | GI50 [23]: 10.9 µM | TGI [23]: 23 µM | GI50 [24]: 20.7 µM | TGI [24]: > 50 µM | GI50 [25]: 13.4 µM | TGI [25]: > 28.9 µM | GI50 [26]: 8.97 µM | TGI [26]: 17.2 µM | GI50 [27]: 8.4 µM | TGI [27]: 15.6 µM | GI50 [28]: > 28 µM | TGI [28]: > 50 µM | GI50 [29]: 9.42 µM | TGI [29]: 20.6 µM | GI50 [30]: 9.15 µM | TGI [30]: 16.7 µM | GI50 [31]: 4.17 µM | TGI [31]: 13.7 µM | GI50 [32]: 18 µM | TGI [32]: > 50 µM | GI50 [33]: 15.4 µM | TGI [33]: > 43.6 µM | GI50 [34]: 10.1 µM | TGI [34]: 22.6 µM | GI50 [35]: 11.2 µM | TGI [35]: > 50 µM | GI50 [36]: 13.5 µM | TGI [36]: 27.2 µM | GI50 [37]: > 50 µM | TGI [37]: > 50 µM | GI50 [38]: 11.3 µM | TGI [38]: 23.4 µM | GI50 [39]: 10.6 µM | TGI [39]: 24.8 µM | GI50 [40]: 9.2 µM | TGI [40]: 25.3 µM | GI50 [41]: 8.73 µM | TGI [41]: 18.2 µM | GI50 [42]: 8.82 µM | TGI [42]: 19.4 µM | GI50 [43]: 11 µM | TGI [43]: 27.4 µM | GI50 [44]: 11.4 µM | TGI [44]: > 29 µM | GI50 [45]: 7.03 µM | TGI [45]: 16.1 µM | GI50 [46]: 9.95 µM | TGI [46]: 19.9 µM | GI50 [47]: 11.2 µM | TGI [47]: 31.1 µM | GI50 [48]: 12.8 µM | TGI [48]: 25.2 µM | GI50 [49]: 8.81 µM | TGI [49]: 19.2 µM | GI50 [50]: 15.9 µM | TGI [50]: > 37.4 µM | GI50 [51]: 14.7 µM | TGI [51]: > 50 µM | GI50 [52]: 10.4 µM | TGI [52]: 23.3 µM | GI50 [53]: 13.9 µM | TGI [53]: > 28.2 µM | GI50 [54]: 10.1 µM | TGI [54]: 19.7 µM | GI50 [55]: 8.21 µM | TGI [55]: 18.9 µM | GI50 [56]: 10.7 µM | TGI [56]: 27.9 µM
